Data reported in patent US20060293242A1, “Transporting of taxoid derivatives through the blood brain barrier” (priority 2001, published 2006).
pIC50: −log10 of the molar value. Residues, ends and D or L forms follow the SMILES beside them. *: point of attachment. Paclitaxel(2'-O-succinyl) = CC(=O)O[C@H]1C(=O)[C@@]2(C)[C@H]([C@H](OC(=O)c3ccccc3)[C@]3(O)C[C@H](OC(=O)[C@H](OC(=O)CCC(=O)*)[C@@H](NC(=O)c4ccccc4)c4ccccc4)C(C)=C1C3(C)C)[C@]1(OC(C)=O)CO[C@@H]1C[C@@H]2O

Columns and labels:
[1] = tested on: SK-N-SH (neuroblastome) cells; assay: Cytotoxicity assay (MTT), SK-N-SH cells; assay type: cell-based; conditions: Homo sapiens, MTT test, read-out: IC50 (concentration resulting in 50% inhibition of growth)
Method: (§1) 9 L (glioblastome), MCF-7 and MDA-MB-435 (breast cancer), and SK-N-SH (neuroblastome) cells were obtained commercially from ATCC. The cells are seeded at approximately 10^4 cells per well, 24 h before addition of the products. They are then at 60-80% confluence on the day of the experiment. The cells are maintained in culture at 37° C. in an atmosphere at 95% humidity and 5% CO2 in an OptiMem® medium.
(§2) The cells are incubated either with free Taxol or with the vectorized Taxol at increasing concentrations for 48 hours to 72 hours. At the end of the culturing period, MTT (3-(4,5-dimethylthiazole-2-yl)-2,5-diphenyltetrazolium bromide) is added to the wells and the culture plates are then incubated for 4 hours in an incubator. The resulting crystalline deposit of formazan is then dissolved by addition of 200 μl of DMF/SDS. The optical density (OD) is measured at 550 nm (reference 630 nm) using a microplate reader. […]
(§3) The sensitivity of the 9L, MCF-7, MDA-MB-435 and SK-N-SH cells to free Taxol and to the vectorized Taxol was measured by the MTT test under the experimental conditions defined above for which the relationship between the optical density and the number of viable cells is linear.
(§4) These cells are incubated with increasing concentrations of product and, after […] of incubation, cell survival is measured by the MTT test.

[2] = tested on: MDA-MB-435 (breast cancer) cells; assay: Cytotoxicity assay (MTT), MDA-MB-435 cells; assay type: cell-based; conditions: Homo sapiens, MTT test, read-out: IC50 (concentration resulting in 50% inhibition of growth)
Method: as §1, §2, §3, §4

9 L (glioblastome) cells = assay: Cytotoxicity assay (MTT), 9L cells; assay type: cell-based; conditions: for pIC50: 9L cells, MTT test, read-out: IC50 (concentration resulting in 50% inhibition of growth)
Method: as §1
The cells are incubated either with free Taxol or with the vectorized Taxol at increasing concentrations for 48 hours to 72 hours. At the end of the culturing period, MTT (3-(4,5-dimethylthiazole-2-yl)-2,5-diphenyltetrazolium bromide) is added to the wells and the culture plates are then incubated for 4 hours in an incubator. The resulting crystalline deposit of formazan is then dissolved by addition of 200 μl of DMF/SDS. The optical density (OD) is measured at 550 nm (reference 630 nm) using a microplate reader.
Graphic representation of the percentages of OD of the treated wells as a function of the concentration of products makes it possible to determine the IC50. This corresponds to the concentration of the product which inhibits 50% of growth.
as §3, §4

[3] = tested on: MCF-7 (breast cancer) cells; assay: Cytotoxicity assay (MTT), MCF-7 cells; assay type: cell-based; conditions: Homo sapiens, MCF7, MTT test, read-out: IC50 (concentration resulting in 50% inhibition of growth)
Method: as §1, §2, §3, §4

blood/brain barrier = assay: In situ brain perfusion (BBB penetration, Kin); assay type: in vivo; conditions: mouse, in situ brain perfusion for 60 seconds in buffer, 14C-labelled Taxol, FIG. 2
Method: Mice (20-25 g, Iffa-Credo, Arbresle, France) are anesthetized. After exposure of the common carotid, the right external carotid artery is ligated at the level of the bifurcation with the internal carotid and the common carotid is ligated between the heart and the site of implantation of the catheter (polyethylene catheter, ID: 0.76). This catheter, prefilled with a solution of heparin (100 units/ml), is inserted into the common carotid. The mice are perfused with the perfusion buffer (128 mM NaCl, 24 mM NaHCO3, 4.2 mM KCl, 2.4 mM NaH2PO4, 1.5 mM CaCl2, 0.9 mM MgSO4 and 9 mM D-glucose) This buffer is filtered and then a mixture containing 95% 02/5% CO2 is bubbled in order to maintain the pH close to 7.4 and to provide the brain with oxygen during the perfusion.
The mice are perfused with the buffer containing free Taxol or vectorized Taxol. In each product, the Taxol is radiolabeled with carbon 14 (specific activity: 55 mCi/mmole, Sigma, France). Just before the beginning of perfusion, the heart is stopped by sectioning the ventricles, in order to avoid reflux of the perfusate during perfusion. The right hemisphere is then perfused at a rate of 10 ml/min for 60 seconds, after which the mouse is decapitated. The amount of radioactivity in the right hemisphere is then measured and the brain penetration (Kin) is calculated. […]

**Q.** Which results are given for CC(=O)O[C@H]1C(=O)[C@@]2(C)[C@H]([C@H](OC(=O)c3ccccc3)[C@]3(O)C[C@H](OC(=O)[C@H](O)[C@@H](NC(=O)c4ccccc4)c4ccccc4)C(C)=C1C3(C)C)[C@]1(OC(C)=O)CO[C@@H]1C[C@@H]2O [Free Taxol, paclitaxel]?
**A.** pIC50 [1]: 7.06; pIC50 [2]: 7.02; pIC50 (9 L (glioblastome) cells): 5.46; pIC50 [3]: 7.38

**Q.** With CC(=O)O[C@H]1C(=O)[C@@]2(C)[C@H]([C@H](OC(=O)c3ccccc3)[C@]3(O)C[C@H](OC(=O)[C@H](OC(=O)CCC(=O)N[C@@H](CCCNC(=N)N)C(=O)N[C@@H](CCCNC(=N)N)C(=O)N[C@@H](CC(C)C)C(=O)N[C@@H](CO)C(=O)N[C@@H](Cc4ccc(O)cc4)C(=O)N[C@@H](CO)C(=O)N[C@@H](CCCNC(=N)N)C(=O)N[C@@H](CCCNC(=N)N)C(=O)N[C@@H](CCCNC(=N)N)C(=O)N[C@@H](Cc4ccccc4)C(=O)O)[C@@H](NC(=O)c4ccccc4)c4ccccc4)C(C)=C1C3(C)C)[C@]1(OC(C)=O)CO[C@@H]1C[C@@H]2O [Taxol-SynB3] ({Paclitaxel(2'-O-succinyl)}-RRLSYSRRRF-OH; N-terminus and C-terminus assumed) as the compound, how does the “increase of passage into the brain (Kin) versus free Taxol” value (blood/brain barrier) read?
**A.** approximately 12 fold

**Q.** What about the solubility (physchem) of the same compound?
**A.** > 10000 µg/mL

**Q.** What about the “times more active than the free Taxol” value (9 L (glioblastome) cells; 9 L cell line, ratio of IC50) of the same compound?
**A.** approximately 5 times

**Q.** What about the pIC50 (9 L (glioblastome) cells) of the same compound?
**A.** 6.22
